The record followed here is patent publication US11976083B2, “Inhibitors of peptidylarginine deiminases” (Gilead Sciences, Inc., priority 2020, dated 2024).

In this assay the target is T1, human PAD4 (Homo sapiens, UniProt Q9UM07).
T1 construct: human PAD4 (NM_012387), A2-P663, was PCR amplified; His-SUMO (N, cleaved yes); made in house; host or cells: E. coli BL21(DE3)
T1 sequence (Q9UM07 2-663): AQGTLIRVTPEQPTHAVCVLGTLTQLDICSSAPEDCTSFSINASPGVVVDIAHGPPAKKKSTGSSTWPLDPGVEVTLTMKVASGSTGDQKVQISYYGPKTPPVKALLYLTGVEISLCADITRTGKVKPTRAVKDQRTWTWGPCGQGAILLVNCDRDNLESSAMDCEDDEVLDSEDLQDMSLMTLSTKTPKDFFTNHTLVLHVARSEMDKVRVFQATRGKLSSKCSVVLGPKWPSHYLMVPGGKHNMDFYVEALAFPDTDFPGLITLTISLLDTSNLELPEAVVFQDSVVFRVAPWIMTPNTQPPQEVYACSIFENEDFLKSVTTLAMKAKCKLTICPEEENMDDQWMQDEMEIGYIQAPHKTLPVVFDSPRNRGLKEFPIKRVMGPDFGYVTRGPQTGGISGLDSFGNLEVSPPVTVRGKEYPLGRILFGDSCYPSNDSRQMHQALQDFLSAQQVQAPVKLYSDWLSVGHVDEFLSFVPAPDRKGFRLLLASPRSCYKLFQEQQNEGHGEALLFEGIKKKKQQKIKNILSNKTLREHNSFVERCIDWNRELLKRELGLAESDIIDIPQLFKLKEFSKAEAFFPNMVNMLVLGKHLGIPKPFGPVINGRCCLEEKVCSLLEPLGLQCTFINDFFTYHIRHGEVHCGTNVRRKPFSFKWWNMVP
Kind of assay: In vitro PAD4 BAEE biochemical assay. The note with it: BAEE substrate 3 mM, 5 nM PAD4, 2 mM calcium chloride; geometric mean of multiple experiments. In a few lines: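 PAD4 5 nM, CaCl2 2 mM, BAEE 3 mM final; 50 mM MOPS pH 7.6, 50 mM NaCl, 0.05% Tween-20, 2 mM DTT. Cpd + enzyme 30 min 25 °C; substrate 2 h 25 °C; EDTA stop; OPA detection 1 h. IC50 4-parameter fit.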
As to `COc1cc(C(=O)N2CCC[C@@H](N)C2)cc2nc(-c3cc4ccc5nc4n3C[C@H]3C[C@H]3COCCC(=O)N[C@@H]5C)n(C)c12` [Example 304, (3~{S),5~{R},12~{R})-18-[5-[(3~{R})-3-aminopiperidine-1-carbonyl]-7-methoxy-1-methyl-benzimidazol-2-yl]-12-methyl-7-oxa-1,11,20-triazatetracyclo[11.5.2.0^{3,5}.0^{16,19}] icosa-13(20),14,16(19),17-tetraen-10-one], the concentration for half-maximal inhibition (IC50) came to 70 nM.

Consider `COc1cc(C(=O)N2CCC[C@@H](N)C2)cc2nc(-c3cc4ccc5nc4n3C[C@@H]3C[C@@H]3COCCC(=O)N[C@@H]5C)n(C)c12` [Example 305, (3~{R},5~{S},12~{R})-18-[5-[(3~{R})-3-aminopiperidine-1-carbonyl]-7-methoxy-1-methyl-benzimidazol-2-yl]-12-methyl-7-oxa-1,11,20-triazatetracyclo[11.5.2.0^{3,5).0^{16,19}] icosa-13(20),14,16(19),17-tetraen-10-one], for which the IC50 was found to be 65 nM.

With `COc1cc(C(=O)N2CCC[C@@H](N)C2)cc2nc(-c3cc4ccc5nc4n3CC[C@H]3C[C@H]3COCCC(=O)N[C@@H]5C)n(C)c12` [Example 306, (4~{R},6~{R},13~{R})-19-[5-[(3~{R})-3-aminopiperidine-1-carbonyl]-7-methoxy-1-methyl-benzimidazol-2-yl]-13-methyl-8-oxa-1,12,21-triazatetracyclo[12.5.2.0^{4,6}.0^{17,20}] henicosa-14(21),15,17(20),18-tetraen-11-one], the IC50 was found to be 85 nM. Take `COc1cc(C(=O)N2CCC[C@@H](N)C2)cc2nc(-c3cc4ccc5cc4n3CCCOC[C@H]3C[C@H]3C(=O)N[C@@H]5C)n(C)c12` [Example 307, (2~{R},5~{R},7~{S})-14-[5-[(3~{R})-3-aminopiperidine-1-carbonyl]-7-methoxy-1-methyl-benzimidazol-2-yl]-2-methyl-9-oxa-3,13-diazatetracyclo[11.5.2.0^{5,7}.0^{16,20}] icosa-1(19),14,16(20),17-tetraen-4-one]: the IC50 worked out at 82 nM. The result for `COc1cc(C(=O)N2CCC[C@@H](N)C2)cc2nc(-c3cc4ccc5nc4n3CCCOC[C@H]3C[C@H]3C(=O)N[C@@H]5C)n(C)c12` [Example 308, (2~{R},5~{R},7~{S})-14-[5-[(3~{R})-3-aminopiperidine-1-carbonyl]-7-methoxy-1-methyl-benzimidazol-2-yl]-2-methyl-9-oxa-3,13,19-triazatetracyclo[11.5.2.0^{5,7}.0^{16,20}] icosa-1(19),14,16(20),17-tetraen-4-one] reads 72 nM; that for `COc1cc(C(=O)N2CCC[C@@H](N)C2)cc2nc(-c3cc4ccc5nc4n3CCCOC[C@@H]3C[C@@H]3C(=O)N[C@@H]5C)n(C)c12` [Example 309, (2~{R},5~{S},7~{R})-14-[5-[(3~{R})-3-aminopiperidine-1-carbonyl]-7-methoxy-1-methyl-benzimidazol-2-yl]-2-methyl-9-oxa-3,13,19-triazatetracyclo[11.5.2.0^{5,7}.0^{16,20}] icosa-1(19),14,16(20),17-tetraen-4-one], 1380 nM. With `COc1cc(C(=O)N2CCC[C@@H](N)C2)cc2nc(-c3cc4ccc5nc4n3C[C@H]3C[C@H]3COCC(C)(C)C(=O)N[C@@H]5C)n(C)c12` [Example 310, (3~{S},5~{R},12~{R})-18-[5-[(3~{R})-3-aminopiperidine-1-carbonyl]-7-methoxy-1-methyl-benzimidazol-2-yl]-9,9,12-trimethyl-7-oxa-1,11,20-triazatetracyclo[11.5.2.0^{3,5}.0^{16,19}] icosa-13(20),14,16(19),17-tetraen-10-one] the figure was 135 nM; with `COc1cc(C(=O)N2CCC[C@@H](N)C2)cc2nc(-c3cc4ccc5nc4n3C[C@H]3C[C@H]3COCC3(CC3)C(=O)N[C@@H]5C)n(C)c12` [Example 311, (3~{S],5~{R},12~{R})-18-[5-[(3~{R})-3-aminopiperidine-1-carbonyl]-7-methoxy-1-methyl-benzimidazol-2-yl]-12-methyl-spiro[7-oxa-1,11,20-triazatetracyclo[11.5.2.0^{3,5}.0^{16,19}]icosa-13(20),14,16(19),17-tetraene-9,1′-cyclopropane]-10-one], 175 nM. The result for `COc1cc(C(=O)N2CC[C@@H](OC)[C@@H](N)C2)cc2nc(-c3cc4ccc5nc4n3C[C@H]3C[C@H]3COCCC(=O)N[C@@H]5C)n(C)c12` [Example 314, (3~{S),5~{R},12~{R})-18-[5-[(3~{S},4~{R})-3-amino-4-methoxy-piperidine-1-carbonyl]-7-methoxy-1-methyl-benzimidazol-2-yl]-12-methyl-7-oxa-1,11,20-triazatetracyclo[11.5.2.0^{3,5}.0^{16,19}] icosa-13(20),14,16(19),17-tetraen-10-one] reads 156 nM; that for `COc1cc(C(=O)N[C@H]2CNCC[C@@H]2F)cc2nc(-c3cc4ccc5nc4n3C[C@H]3C[C@H]3COCCC(=O)N[C@@H]5C)n(C)c12` [Example 315, ~{N}-[(3~{S},4~{S})-4-fluoro-3-piperidyl]-7-methoxy-1-methyl-2-[(3~{S},5~{R},12~{R})-12-methyl-10-oxo-7-oxa-1,11,20-triazatetracyclo[11.5.2.0^{3,5}.0^{16,19}]icosa-13(20),14,16(19),17-tetraen-18-yl]benzimidazole-5-carboxamide], 45 nM.

As to `COc1cc(C(=O)N2[C@H]3CC[C@@H]2[C@H](N)C3)cc2nc(-c3cc4ccc5nc4n3CCCCCCCC(=O)N[C@@H]5C)c(C)n12` [Example 316, (11˜{R})-17-[7-[(1˜{R},2˜{R},4˜{S})-2-amino-7-azabicyclo[2.2.1]heptane-7-carbonyl]-5-methoxy-3-methyl-imidazo[1,2-a]pyridin-2-yl]-11-methyl-1,10,19-triazatricyclo[10.5.2.0^{15,18}]nonadeca-12(19),13,15(18),16-tetraen-9-one], the IC50 was found to be 14 nM. The result for `COc1cc(C(=O)N2[C@H]3CC[C@@H]2[C@H](N)C3)cc2nc(-c3cc4ccc5nc4n3CCCCCCC(=O)N[C@@H]5C)c(C)n12` [Example 317, (10~{R})-16-[7-[(1~{R},2~{R},4~{S})-2-amino-7-azabicyclo[2.2.1]heptane-7-carbonyl]-5-methoxy-3-methyl-imidazo[1,2-a]pyridin-2-yl]-10-methyl-1,9,18-triazatricyclo[9.5.2.0^{14,17}]octadeca-11(18),12,14(17),15-tetraen-8-one] reads 16 nM; that for `COc1cc(C(=O)N2[C@H]3CC[C@@H]2[C@H](N)C3)cc2nc(-c3cc4ccc5nc4n3CCCCCCCCC(=O)N[C@@H]5C)c(C)n12` [Example 318, (12~{R})-18-[7-[(1~{R},2~{R},4~{S})-2-amino-7-azabicyclo[2.2.1]heptane-7-carbonyl]-5-methoxy-3-methyl-imidazo[1,2-a]pyridin-2-yl]-12-methyl-1,11,20-triazatricyclo[11.5.2.0^{16,19}]icosa-13(20),14,16(19),17-tetraen-10-one], 18 nM. With `COc1cc(C(=O)N2[C@H]3CC[C@@H]2[C@H](N)C3)cc2nc(-c3cc4ccc5nc4n3CCCCCCCC(=O)N(C)[C@@H]5C)c(C)n12` [Example 319, (11~{R})-17-[7-[(1~{R},2~{R},4~{S})-2-amino-7-azabicyclo[2.2.1]heptane-7-carbonyl]-5-methoxy-3-methyl-imidazo[1,2-a]pyridin-2-yl]-10,11-dimethyl-1,10,19-triazatricyclo[10.5.2.0^{15,18}]nonadeca-12(19),13,15(18),16-tetraen-9-one] the figure was 266 nM; with `COc1cc(C(=O)N2[C@H]3CC[C@@H]2[C@H](N)C3)cc2nc(-c3cc4ccc5nc4n3CCCCCC(=O)N[C@@H]5C)c(C)n12` [Example 320, (9~{R})-15-[7-[(1~{R},2~{R},4~{S})-2-amino-7-azabicyclo[2.2.1]heptane-7-carbonyl]-5-methoxy-3-methyl-imidazo[1,2-a]pyridin-2-yl]-9-methyl-1,8,17-triazatricyclo[8.5.2.0^{13,16}]heptadeca-10(17),11,13(16),14-tetraen-7-one], 17 nM; with `COc1cc(C(=O)N2[C@H]3CC[C@@H]2[C@H](N)C3)cc2nc(-c3cc4ccc5nc4n3CCCCOCCC(=O)N[C@@H]5C)c(C)n12` [Example 321, (11~{R})-17-[7-[(1~{R},2~{R},4~{S})-2-amino-7-azabicyclo[2.2.1]heptane-7-carbonyl]-5-methoxy-3-methyl-imidazo[1,2-a]pyridin-2-yl]-11-methyl-6-oxa-1,10,19-triazatricyclo[10.5.2.0^{15,18}]nonadeca-12(19),13,15(18),16-tetraen-9-one], 32 nM. Take `COc1cc(C(=O)N2[C@H]3CC[C@@H]2[C@H](N)C3)cc2nc(-c3cc4ccc5nc4n3C[C@@H]3C[C@H]3COCCC(=O)N[C@@H]5C)c(C)n12` [Example 322, (3~{R},5~{R},12~{R})-18-[7-[(1~{R},2~{R},4~{S})-2-amino-7-azabicyclo[2.2.1]heptane-7-carbonyl]-5-methoxy-3-methyl-imidazo[1,2-a]pyridin-2-yl]-12-methyl-7-oxa-1,11,20-triazatetracyclo[11.5.2.0^{3,5}.0^{16,19}] icosa-13(20),14,16(19),17-tetraen-10-one]: the IC50 amounted to 15 nM.

`COc1cc(C(=O)N2[C@H]3CC[C@@H]2[C@H](N)C3)cc2nc(-c3cc4ccc5nc4n3C[C@H]3C[C@@H]3COCCC(=O)N[C@@H]5C)c(C)n12` [Example 323, (3~{S),5~{S},12~{R})-18-[7-[(1~{R},2~{R},4~{S})-2-amino-7-azabicyclo[2.2.1]heptane-7-carbonyl]-5-methoxy-3-methyl-imidazo[1,2-a]pyridin-2-yl]-12-methyl-7-oxa-1,11,20-triazatetracyclo[11.5.2.0^{3,5}.0^{16,19}] icosa-13(20),14,16(19),17-tetraen-10-one]: the IC50 came to 14 nM.
